From patent US5859033A, “Anticonvulsant pyridinyl benzamide derivatives” (Bristol-Myers Squibb Company, priority 1997, dated 1999)

What was measured:
[1] = system: pentylenetetrazole (PTZ)-induced seizure in female C57BI/6 mice; assay: Pentylenetetrazole (PTZ)-induced seizure procedure; type: in vivo, mouse (female C57BI/6); conditions: 50 mg/kg i.p., 30 min before 75 mg/kg i.p. PTZ; for PTZ Anticonvulsive Results: Surv (survival at one hour postPTZ): one hour post PTZ
Protocol: (§1) The compounds of Formula I are anticonvulsant agents. Their anticonvulsant properties were determined by pharmacologic testing, utilizing two standard animal models of epilepsy: the pentylenetetrazole (PTZ)-induced seizure procedure and the maximal electroshock test (MES). General descriptions of such testing can be found in J. F. Reinhard and J. F. Reinhard, Jr., "Experimental Evaluation of Anticonvulsants," in Anticonvulsants, J. A. Vida, Ed., Academic Press, New York, N.Y., 1977.
The Pentylenetetrazole (PZT)-Induced Seizure Procedure
In the PTZ procedure female C57BI/6 mice (17-26 g) were injected i.p. (vol=0.1 mL/20 g) with test compound or vehicle 30 min. before i.p. administration of 75 mg/kg pentylenetetrazol. Multiple doses of reference compounds (ethosuximide, trimethadione, and pentobarbital) were tested at the time of peak activity and at the dose range reported in the literature. Ten mice were used per group. After injection, mice were placed in individual observation cages and monitored for one hour. During the first 30 minutes following PTZ injection, seizure activity was recorded by measuring: the latency to the onset of pre-convulsive activity, the latency to the onset of the first clonic seizure longer than five seconds, the latency to the onset of the first intense-generalized clonic/tonic seizure, and the length of survival. During the second 30 min. period, only time of death was recorded. Those compounds that produced a significant delay in the onset of seizure activity or delayed (or abolished) mortality when compared to that produced by vehicle were classified as anticonvulsants. Significant difference between animals treated with vehicle or test compound were determined using the Student's t-test.

[2] = system: tonic seizure (maximum electroshock) in female C57BI/6 mice; assay: Maximum Electroshock (MES) procedure; type: in vivo, mouse (female C57BI/6); conditions: Mus musculus, ip, 0.5 h, i.p. 30 min before MES, abolition of hindlimb tonic extension, read-out: MES Results: median effective dose (ED50)
Protocol: as §1
The Maximum Electroshock (MES) Procedure
In the MES procedure a tonic seizure was produced in female C57BI/6 mice (17-26 g) by the delivery of a 50 milliamps current through corneal electrodes for 0.2 sec. Before testing, animals were allowed food and water ad libitum. Compounds were injected i.p. (vol=0.1 mL/20 g) 30 min. before the MES. Reference compounds (phenytoin, carbamazepine, phenobarbital, and valproic acid) were tested at the time of peak activity and at the dose range reported in the literature. Seven mice were used per group. In this test anticonvulsive activity was indicated by the abolition of the hindlimb tonic extension. The median effective dose (ED50) was obtained for each compound.

Row | Structure (SMILES) | PTZ Anticonvulsive Results: First (latency to first seizure) [1] | PTZ Anticonvulsive Results: IGS (onset of intense, generalized seizures) [1] | PTZ Anticonvulsive Results: Pre (latency to first twitch) [1] | PTZ Anticonvulsive Results: Surv Time (duration of survival) [1] | PTZ Anticonvulsive Results: Surv (survival at one hour postPTZ) [1] | ED50 [2]
1 | COc1cc(N)c(Cl)cc1C(=O)NCc1cccnc1 [Example 1, 4-Amino-5-chloro-2-methoxy-N-(3-pyridinylmethyl)benzamide] | ++++ (++++ = > 400% of controls) | +++ (+++ = > 300% of controls) | ++ (++ = > 200% of controls) | ++++ (++++ = > 400% of controls) | ++++ (++++ = > 400% of controls) | < 75 mg/kg
2 | COc1cc(N)c(Cl)cc1C(=O)NCc1ccccn1 [Example 2, 4-Amino-5-chloro-2-methoxy-N-(2-pyridinylmethyl)benzamide] | ++++ (++++ = > 400% of controls) | – | ++ (++ = > 200% of controls) | +++ (+++ = > 300% of controls) | ++++ (++++ = > 400% of controls) | –
3 | COc1cc(N)c(Cl)cc1C(=O)NCc1ccncc1 [Example 3, 4-Amino-5-chloro-2-methoxy-N-(4-pyridinylmethyl)benzamide] | ++++ (++++ = > 400% of controls) | +++ (+++ = > 300% of controls) | ++ (++ = > 200% of controls) | ++++ (++++ = > 400% of controls) | ++++ (++++ = > 400% of controls) | < 10 mg/kg
